From patent US8178579B2, “Dioxanes and uses thereof” (President and Fellows of Harvard College, priority 2001, dated 2012)

What was measured:
histone deacetylation = assay: acetylated lysine / acetylated histone in cells (AcLysine cytoblot, immunofluorescence, Western blot); format: cell-based, human; settings: A549 (also BS-C-1) cells, tubacin, niltubacin 2 μM, histacin 20 μM, library ~2-5 μM, 18 h
Method: A549 cells were seeded at a density of 4,000 cells/50 μl in DMEM+ in white tissue culture-treated 384-well plates (Nalge Nunc) using a Multidrop 384 liquid dispenser (Labsystems). Library small molecules were pinned twice (100-150 nl/pin) from ˜1 mM stock solutions (DMSO) and incubated for 18 hours. For the ITSA1+AcTubulin assay, ITSA1 (50 μM) was added four hours after pin-transfer of library molecules. Media was aspirated with a 16-channel wand. For the acetylated α-tubulin cytoblot (AcTubulin), 40 μl/well of fixation solution (3.7% formaldehyde (1:10 from 37% stock) in Tris-buffered saline (TBS, 0.15 M NaCl, 0.02 M Tris-Cl, pH 7.4) was added and plates incubated for twenty minutes at room temperature. After aspiration, 30 μl 100% methanol (−20° C.) was added and incubated for five minutes at room temperature. After aspirating and washing three times with 90 μl of antibody dilution buffer (ADB, TBS/2% bovine serum albumin, 0.1% TritonX-100) the wells were blocked for twenty minutes in ADB. After aspirating, 20 μl/well of ADB containing anti-acetylated α-tubulin antibody (mouse; 1:1000) and anti-mouse IgG horseradish peroxidase (HRP)-conjugated antibody (1:750) was added and incubated overnight (4° C.). For the anti-acetyl lysine cytoblot (AcLysine), 40 μl/well of fixation solution (95% ethanol/5% acetic acid, −20° C.) was added and plates incubated for five minutes at room temperature. Wells were aspirated, washed, and blocked in ADB as for the AcTubulin protocol. After aspirating, 20 μl/well of ADB containing anti-acetylated lysine (rabbit; 1:375) and anti-rabbit IgG-HRP conjugated antibody (1:750) was added and incubated overnight (4° C.). For the anti-acetylated histone H3 (AcHistH3) and anti-acetylated histone H4 (AcHistH4) cytoblots, cells were fixed, washed, and blocked in ADB as for the AcLysine cytoblot. After aspirating, 20 μl/well of ADB containing anti-acetylated histone H3 antibody (rabbit, 1:500) or anti-acetylated histone H4 antibody (rabbit, 1:500) was added and incubated for two hours at room temperature. Wells were aspirated and washed twice with 80 μl of ADB. After aspirating, 20 μl/well of ADB containing anti-rabbit IgG-HRP conjugated antibody (1:1000) was added and incubated for two hours (room temperature). For the AcTubulin and AcLysine assays, plates were washed three times with TBS before adding 20 μl/well of enhanced chemiluminescent (ECL) mixture. For the AcHistH3 and AcHistH4 assays, plates were washed three times with 80 μl TBS with 1% Triton X-100 and once with 80 μl TBS before adding 20 μl/well of ECL mixture. Plates were read on an Analyst plate reader (LJL Biosystems) with an integration time of 0.1 seconds.
1,3-dioxanes from single polystyrene macrobeads were prepared as 1-2 mM stock solutions in DMSO as described [Hubbert, C., Guardiola, A., Shao, R., Kawaguchi, Y., Ito, A., Nixon, A., Yoshida, M., Wang, X. F., and Yao, T. P. (2002). HDAC6 is a microtubule-associated deacetylase. Nature 417, 455-458]. Bead decoding and structure determination were as described [See for example, Hubbert, C., Guardiola, A., Shao, R., Kawaguchi, Y., Ito, A., Nixon, A., Yoshida, M., Wang, X. F., and Yao, T. P. (2002). HDAC6 is a microtubule-associated deacetylase. Nature 417, 455-458; and Piperno, G., LeDizet, M., and Chang, X. J. (1987). Microtubules containing acetylated alpha-tubulin in mammalian cells in culture. J. Cell Biol. 104, 289-302]. Small molecules (˜2-5 μM) of interest were retested using a sample from the plate of stock solutions by fluorescence microscopy and comparison to the effects of trichostatin (300 nM to 1 μM).
A549 cells were seeded at a density of 50,000/200 μl in DMEM+ on the surface of glass coverslips on top of Parafilm in a 10 cm dish and allowed to attach overnight. For detection of acetylated α-tubulin, cells were permeabilized and fixed with 100 mM K-PIPES, pH 6.8, 10 mM EGTA, 1 mM MgCl2, 0.2% triton X-100, 0.2% glutaraldehyde for fifteen minutes. […]

HDAC6F H611A mutant = target: T1, HDAC6F H611A mutant (Homo sapiens, UniProt Q9UBN7, H611A); assay: in vitro deacetylase assay with [3H]-histones, HDAC6F H611A mutant; format: biochemical; settings: [3H]-labeled histones, n=3
T1 construct: made in house; host or cells: TAg Jurkat cells, transient transfection, anti-FLAG M2 immunoprecipitation
T1 sequence (Q9UBN7 whole entry H611A): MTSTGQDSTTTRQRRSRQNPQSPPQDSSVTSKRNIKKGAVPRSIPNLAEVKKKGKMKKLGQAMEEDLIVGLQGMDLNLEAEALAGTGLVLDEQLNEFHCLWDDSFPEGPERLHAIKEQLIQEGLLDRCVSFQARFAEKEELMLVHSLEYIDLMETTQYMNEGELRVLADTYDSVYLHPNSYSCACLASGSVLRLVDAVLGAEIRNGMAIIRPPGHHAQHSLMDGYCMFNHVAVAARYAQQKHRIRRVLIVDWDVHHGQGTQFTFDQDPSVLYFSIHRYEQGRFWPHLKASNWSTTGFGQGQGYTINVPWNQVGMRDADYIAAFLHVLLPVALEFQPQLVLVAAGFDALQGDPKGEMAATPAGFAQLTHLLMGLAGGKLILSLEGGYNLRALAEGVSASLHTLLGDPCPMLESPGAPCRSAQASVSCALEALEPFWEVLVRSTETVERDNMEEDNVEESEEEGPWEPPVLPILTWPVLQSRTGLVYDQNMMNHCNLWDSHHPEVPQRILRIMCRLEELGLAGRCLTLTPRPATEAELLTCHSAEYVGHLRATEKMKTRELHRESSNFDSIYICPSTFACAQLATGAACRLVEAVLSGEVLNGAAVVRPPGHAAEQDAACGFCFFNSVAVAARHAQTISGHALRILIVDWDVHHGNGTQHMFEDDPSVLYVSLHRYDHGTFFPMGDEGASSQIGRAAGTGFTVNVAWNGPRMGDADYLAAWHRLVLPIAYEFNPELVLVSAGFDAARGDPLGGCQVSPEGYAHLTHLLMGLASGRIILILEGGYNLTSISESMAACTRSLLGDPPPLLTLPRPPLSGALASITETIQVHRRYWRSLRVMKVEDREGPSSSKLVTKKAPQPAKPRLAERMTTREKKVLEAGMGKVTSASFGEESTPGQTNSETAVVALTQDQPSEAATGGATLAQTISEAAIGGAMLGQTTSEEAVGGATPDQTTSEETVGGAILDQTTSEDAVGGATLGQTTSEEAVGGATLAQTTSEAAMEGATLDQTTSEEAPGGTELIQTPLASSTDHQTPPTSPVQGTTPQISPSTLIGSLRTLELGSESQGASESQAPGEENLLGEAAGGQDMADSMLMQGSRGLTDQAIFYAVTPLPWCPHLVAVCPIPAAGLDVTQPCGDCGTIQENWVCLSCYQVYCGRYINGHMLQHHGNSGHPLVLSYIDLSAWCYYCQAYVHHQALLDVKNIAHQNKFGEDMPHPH
Method: FLAG-tagged HDAC pBJ5 constructs were transiently transfected by electroporation with 5 μg DNA for expression of recombinant proteins (C. M. Grozinger, C. A. Hassig and S. L. Schreiber, Proc. Natl. Acad. Sci. USA, 27, 4868 (1999); and C. A. Hassig et al., Proc. Natl. Acad. Sci. USA 95, 3519 (1998)]. Cells were mock transfected without DNA or with a non-FLAG-tagged pCMV-LacZ construct as a negative control. Forty-eight hours after transfection recombinant proteins were immunoprecipitated using anti-FLAG M2 agarose affinity gel beads as described [C. A. Hassig et al., Proc. Natl. Acad. Sci. USA 95, 3519 (1998)]. Western blotting using anti-acetylated α-tubulin (1:1000) anti-tubulin (1:1000), and anti-acetylated (K9, K14) histone H3 (1:1000) antibodies was performed using standard methods (K. M. Koeller et al., Chemistry & Biology, 10 (5) (2003) pp. 397-410). […]
[^3H]Acetate-incorporated histones were isolated from butyrate-treated HeLa cells as described [J. Taunton, C. […] Immunoprecipitates were incubated with acetylated histones and HDAC activity determined by scintillation counting as described [J. Taunton, C. […] After centrifugation, the supernatant (diluted to 0.4 μg tubulin) and α-FLAG M2 agarose affinity gel beads were analyzed by western blotting with an anti-FLAG M2 antibody (1:1750) to ensure equal protein levels.

Compound | effect on histone deacetylation / lysine or histone acetylation in cells (histone deacetylation) | inhibition of HDAC activity of HDAC6F H611A mutant (HDAC6F H611A mutant) | effect on histone deacetylation / lysine or histone acetylation in cells (histone deacetylation; listed as 415 N3) | effect on histone deacetylation / lysine or histone acetylation in cells (histone deacetylation; listed as JCWII114)
CC(/C=C/C(=O)NO)=C\[C@@H](C)C(=O)c1ccc(N(C)C)cc1 [TSA, trichostatin A, reference compound] | an inhibitor of both α-tubulin and histone deacetylation | not inhibited by either TSA or tubacin | – | –
O=C(CCCCCCC(=O)Nc1ccc([C@@H]2OC(c3ccc(CO)cc3)C[C@H](CSc3nc(-c4ccccc4)c(-c4ccccc4)o3)O2)cc1)NO (stereo partly drawn) [tubacin] | did not affect histone acetylation | not inhibited by either TSA or tubacin | no effect on lysine acetylation | no visible effect on histone deacetylation
